Results published in patent publication US4587333A, “Cephalosporins and their production” (Takeda Chemical Industries, Ltd., priority 1983, dated 1986).
≈ marks a conversion by molar mass, not a printed value.

Tests used:
[1] = system: β-lactamase produced by Proteus vulgalis GN 4413; experiment: stability to β-lactamase (relative ratio of hydrolysis rate); format: biochemical; settings: CER rated at 100
Text: (§1) In the above Table 3, the stabilities against the β-lactamase produced by Escherichia coli TN 713 and β-lactamase produced by Klebsiella oxytoca TN 1719 are expressed on a numerical scale, whereby the stabilities of PCG against these are rated at 100. Also, the stabilities against the β-lactamase produced by Serratia marcescens and β-lactamase produced by Proteus vulgaris are expressed on a numerical scale, whereby the stabilities of CER against these are rated at 100.

[2] = system: β-lactamase produced by Escherichia coli TN 713; experiment: as above; format: biochemical; settings: PCG rated at 100
Text: as §1

[3] = system: β-lactamase produced by Serratia marcescens TN 81; experiment: as above; format: biochemical; settings: CER rated at 100
Text: as §1

[4] = system: β-lactamase produced by Klebsiella oxytoca TN 1719; experiment: as above; format: biochemical; settings: PCG rated at 100
Text: as §1

[5] = property of the substance (amphoteric); format: physicochemical; settings: dihydrochloride is neutral
Escherichia coli 0-111 = experiment: therapeutic effect to infectious disease of mice; format: in vivo; settings: 0111; mice infected with Escherichia coli 0-111; subcutaneous (SC); TAN-547 hydrochloride(s)
β-lactamase = experiment: stability to β-lactamase (overall statement); format: biochemical; settings: as seen from Table 3
Text: as §1

[6] = stability in aqueous solution; format: physicochemical
[7] = system: Citrobacter freundii IFO 12681; experiment: antimicrobial spectrum (minimal inhibitory concentration); format: cell-based; settings: IFO12681, pH 7.0
Text: (§2) The antimicrobial spectra of the compound (I) are shown in Table 1. | *Culture medium: 17.5 g of Bacto antibiotic medium 3 (Difco), 5 g of | Bacto yeast extract (Difco), 20 g of Bacto agar (Difco), 1 l of distilled | water; pH 7.0 | The amount of inoculated microorganism: 1 loopful of about 10^6 /ml o | microorganism suspension.

[8] = system: Alcaligenes faecalis IFO 13111; experiment: as above; format: cell-based; settings: IFO13111, pH 7.0
Text: as §2

[9] = system: Salmonella typhimurium IFO 12529; experiment: as above; format: cell-based; settings: Salmonella enterica, pH 7.0
Text: as §2

[10] = system: Acinetobacter calcoaceticus IFO 12552; experiment: as above; format: cell-based; settings: IFO12552, pH 7.0
Text: as §2

[11] = system: Pseudomonas aeruginosa IFO 3080; experiment: as above; format: cell-based; settings: IFO3080, pH 7.0
Text: as §2

[12] = system: Brevibacterium thiogenitalis ATCC 19240; experiment: as above; format: cell-based; settings: Corynebacterium glutamicum, ATCC19240, pH 7.0
Text: as §2

[13] = system: Staphylococcus aureus FDA 209P; experiment: as above; format: cell-based; settings: FDA209P, pH 7.0
Text: as §2

[14] = system: Escherichia coli NIHJ JC-2; experiment: as above; format: cell-based; settings: NIHJJC2, pH 7.0
Text: as §2

[15] = system: Bacillus megaterium IFO 12108; experiment: as above; format: cell-based; settings: Priestia megaterium, IFO12108, pH 7.0
Text: as §2

[16] = system: Proteus vulgalis IFO 3988; experiment: as above; format: cell-based; settings: pH 7.0
Text: as §2

[17] = system: Bacillus subtilis NIHJ PCI219; experiment: as above; format: cell-based; settings: NIHJPCI219, pH 7.0
Text: as §2

[18] = system: Klebsiella pneumoniae IFO 3317; experiment: as above; format: cell-based; settings: IFO3317, pH 7.0
Text: as §2

[19] = system: Serratia marcescens IFO 12648; experiment: as above; format: cell-based; settings: IFO12648, pH 7.0
Text: as §2

solubility = format: physicochemical
[20] = acute toxicity, subcutaneous administration to mice; format: in vivo; settings: subcutaneously, 1 g/kg
[21] = dimethylsulfoxide, methanol, acetone, ethyl acetate
[22] = water, aqueous acetone, aqueous alcohol

SMILES	Relative ratio of hydrolysis rate [1]	Relative ratio of hydrolysis rate [2]	Relative ratio of hydrolysis rate [3]	Relative ratio of hydrolysis rate [4]	Property of the substance [5]	ED50 (Escherichia coli 0-111)	Stability ([6]; acidic aqueous solution)	Stability ([6]; basic aqueous solution)	Stability ([6]; neutral aqueous solution)	MIC [7]	MIC [8]	MIC [9]	MIC [10]	MIC [11]	MIC [12]	MIC [13]	MIC [14]	MIC [15]	MIC [16]	MIC [17]	also measured
O=C(Cc1cccs1)N[C@@H]1C(=O)N2C(C(=O)[O-])=C(C[n+]3ccccc3)CS[C@H]12 [CER, cephaloridine, reference compound]	100	21	100	30	–	–	–	–	–	–	–	–	–	–	–	–	–	–	–	–	–
CCN1CCN(C(=O)N[C@@H](C(=O)N[C@@H]2C(=O)N3C(C(=O)O)=C(CSc4nnnn4C)CS[C@H]23)c2ccc(O)cc2)C(=O)C1=O [CPZ, cefoperazone, reference compound]	10.5	11.2	11.6	1.55	–	–	–	–	–	–	–	–	–	–	–	–	–	–	–	–	–
CC1(C)S[C@@H]2[C@H](NC(=O)Cc3ccccc3)C(=O)N2[C@H]1C(=O)O [PCG, benzylpenicillin, reference compound]	16	100	12	100	–	–	–	–	–	–	–	–	–	–	–	–	–	–	–	–	–
CC(N)C(=O)NC(CCCNC(=N)N)C(O)CC(=O)OCC1=C(C(=O)O)N2C(=O)C(NC=O)(NC(=O)CCCC(N)C(=O)O)C2SC1 (centres unmarked) [TAN-547 A]	< 0.01	< 0.01	< 0.01	< 0.01	Amphoteric substance	18.2 mg/kg	Unstable	Unstable	slightly unstable	50 µg/mL (≈ 72.7 µM)	6.25 µg/mL (≈ 9.09 µM)	50 µg/mL (≈ 72.7 µM)	1.56 µg/mL (≈ 2.27 µM)	> 50 µg/mL	6.25 µg/mL (≈ 9.09 µM)	> 50 µg/mL	25 µg/mL (≈ 36.4 µM)	12.5 µg/mL (≈ 18.2 µM)	50 µg/mL (≈ 72.7 µM)	12.5 µg/mL (≈ 18.2 µM)	stability to β-lactamase (β-lactamase): remarkably stable; MIC [18]: 50 µg/mL (≈ 72.7 µM); MIC [19]: 50 µg/mL (≈ 72.7 µM); Solubility (solubility; [21]): Hardly soluble; Solubility (solubility; [22]): Easily soluble
CC(N)C(=O)NC(C)C(=O)NC(CCCNC(=N)N)C(O)CC(=O)OCC1=C(C(=O)O)N2C(=O)C(NC=O)(NC(=O)CCCC(N)C(=O)O)C2SC1 (centres unmarked) [TAN-547 B]	< 0.01	< 0.01	< 0.01	< 0.01	Amphoteric substance	17.2 mg/kg	Unstable	Unstable	slightly unstable	50 µg/mL (≈ 65.9 µM)	6.25 µg/mL (≈ 8.24 µM)	25 µg/mL (≈ 32.9 µM)	3.13 µg/mL (≈ 4.12 µM)	> 50 µg/mL	6.25 µg/mL (≈ 8.24 µM)	> 50 µg/mL	25 µg/mL (≈ 32.9 µM)	12.5 µg/mL (≈ 16.5 µM)	25 µg/mL (≈ 32.9 µM)	12.5 µg/mL (≈ 16.5 µM)	stability to β-lactamase (β-lactamase): remarkably stable; MIC [18]: 50 µg/mL (≈ 65.9 µM); MIC [19]: 50 µg/mL (≈ 65.9 µM); Solubility (solubility; [21]): Hardly soluble; Solubility (solubility; [22]): Easily soluble
CC(N)C(=O)NC(C)C(=O)NC(C)C(=O)NC(CCCNC(=N)N)C(O)CC(=O)OCC1=C(C(=O)O)N2C(=O)C(NC=O)(NC(=O)CCCC(N)C(=O)O)C2SC1 (centres unmarked) [TAN-547 C]	< 0.01	< 0.01	< 0.01	< 0.01	Amphoteric substance	16.2 mg/kg	Unstable	Unstable	slightly unstable	50 µg/mL (≈ 60.2 µM)	12.5 µg/mL (≈ 15.1 µM)	25 µg/mL (≈ 30.1 µM)	6.25 µg/mL (≈ 7.53 µM)	> 50 µg/mL	12.5 µg/mL (≈ 15.1 µM)	> 50 µg/mL	25 µg/mL (≈ 30.1 µM)	12.5 µg/mL (≈ 15.1 µM)	50 µg/mL (≈ 60.2 µM)	12.5 µg/mL (≈ 15.1 µM)	death [20]: no death was observed; stability to β-lactamase (β-lactamase): remarkably stable; MIC [18]: 50 µg/mL (≈ 60.2 µM); MIC [19]: 50 µg/mL (≈ 60.2 µM); Solubility (solubility; [21]): Hardly soluble; Solubility (solubility; [22]): Easily soluble
CC(N)C(=O)NC(CCCNC(=N)N)C(O)CC(=O)OCC1=C(C(=O)O)N2C(=O)C(NC(=O)CCCC(N)C(=O)O)C2SC1 (centres unmarked) [TAN-547 D]	–	–	–	–	Amphoteric substance	9.92 mg/kg	Slightly unstable	Unstable	Slightly unstable	> 100 µg/mL	12.5 µg/mL (≈ 19.4 µM)	50 µg/mL (≈ 77.6 µM)	50 µg/mL (≈ 77.6 µM)	> 100 µg/mL	1.56 µg/mL (≈ 2.42 µM)	25 µg/mL (≈ 38.8 µM)	50 µg/mL (≈ 77.6 µM)	0.78 µg/mL (≈ 1.21 µM)	50 µg/mL (≈ 77.6 µM)	0.78 µg/mL (≈ 1.21 µM)	death [20]: no death was observed; MIC [18]: 100 µg/mL (≈ 155 µM); MIC [19]: > 100 µg/mL; Solubility (solubility; [21]): Hardly soluble; Solubility (solubility; [22]): Easily soluble
CC(N)C(=O)NC(C)C(=O)NC(CCCNC(=N)N)C(O)CC(=O)OCC1=C(C(=O)O)N2C(=O)C(NC(=O)CCCC(N)C(=O)O)C2SC1 (centres unmarked) [TAN-547 E]	–	–	–	–	Amphoteric substance	21 mg/kg	Slightly unstable	Unstable	Slightly unstable	> 100 µg/mL	12.5 µg/mL (≈ 17.5 µM)	50 µg/mL (≈ 69.9 µM)	100 µg/mL (≈ 140 µM)	> 100 µg/mL	3.13 µg/mL (≈ 4.37 µM)	25 µg/mL (≈ 34.9 µM)	50 µg/mL (≈ 69.9 µM)	1.56 µg/mL (≈ 2.18 µM)	50 µg/mL (≈ 69.9 µM)	1.56 µg/mL (≈ 2.18 µM)	MIC [18]: 100 µg/mL (≈ 140 µM); MIC [19]: > 100 µg/mL; Solubility (solubility; [21]): Hardly soluble; Solubility (solubility; [22]): Easily soluble
CC(N)C(=O)NC(C)C(=O)NC(C)C(=O)NC(CCCNC(=N)N)C(O)CC(=O)OCC1=C(C(=O)O)N2C(=O)C(NC(=O)CCCC(N)C(=O)O)C2SC1 (centres unmarked) [TAN-547 F]	–	–	–	–	Amphoteric substance	25 mg/kg	Slightly unstable	Unstable	Slightly unstable	> 100 µg/mL	12.5 µg/mL (≈ 15.9 µM)	100 µg/mL (≈ 127 µM)	100 µg/mL (≈ 127 µM)	> 100 µg/mL	3.13 µg/mL (≈ 3.98 µM)	12.5 µg/mL (≈ 15.9 µM)	> 100 µg/mL	1.56 µg/mL (≈ 1.98 µM)	100 µg/mL (≈ 127 µM)	1.56 µg/mL (≈ 1.98 µM)	MIC [18]: 100 µg/mL (≈ 127 µM); MIC [19]: > 100 µg/mL; Solubility (solubility; [21]): Hardly soluble; Solubility (solubility; [22]): Easily soluble
